Data on one compound can be found in ChEMBL document CHEMBL1143846, “Clinical pharmacodynamics of meropenem in patients with lower respiratory tract infections” (Antimicrob Agents Chemother, 2007).

Values after ≈ are worked out from the molar mass of the structure shown.

A short description of data set [1]: Ratio of fAUC to MIC in patient with lower respiratory tract infection. It counts as ADME. The following applies: human.
Data set [2] relates to Pseudomonas aeruginosa. Put plainly: Antimicrobial activity against Pseudomonas aeruginosa. The data set is classed as functional.
The nature of data set [3]: Ratio of fCmin to MIC in patient with lower respiratory tract infection. It counts as ADME. Conditions: human.
Data set [4] is described as follows: Ratio of fCmax to MIC in patient with lower respiratory tract infection. It counts as ADME. The following applies: human.
Data set [5] has as its system Klebsiella pneumoniae. Put plainly: Antimicrobial activity against Klebsiella pneumoniae. The data set is classed as functional.
For data set [6], the species on record is Homo sapiens. Put plainly: fCmax in patient with lower respiratory tract infection. Conditions: in vivo. The data set is classed as ADME, organism-based.
For data set [7], the species on record is Homo sapiens. Put plainly: fCmin in patient with lower respiratory tract infection. It counts as ADME, organism-based. The following applies: in vivo.
The test system of data set [8] is Staphylococcus aureus. Put plainly: Antimicrobial activity against methicillin-susceptible Staphylococcus aureus. The data set is classed as functional.
For data set [9], the species on record is Homo sapiens. Put plainly: fAUC in patient with lower respiratory tract infection. The data set is classed as ADME, organism-based. Conditions: in vivo.
The species entered for data set [10] is Homo sapiens. Put plainly: ft>MIC in patient with lower respiratory tract infection. It counts as ADME, organism-based. The following applies: in vivo.
Data set [11] relates to Haemophilus influenzae. Put plainly: Antimicrobial activity against Haemophilus influenzae. The data set is classed as functional.
For data set [12], the system named is Streptococcus pneumoniae. Put plainly: Antimicrobial activity against Streptococcus pneumoniae. It counts as functional.

Take `C[C@@H](O)[C@H]1C(=O)N2C(C(=O)O)=C(S[C@@H]3CN[C@H](C(=O)N(C)C)C3)[C@H](C)[C@H]12` [MEROPENEM]: the Ratio in data set [1] is given as 6683.38; in data set [3], 34.24; in [4], 1427.66. Also, the MIC in data set [2], in data set [5], in [8], in data set [11] and in [12] was 0.06 µg/mL (≈ 0.156 µM) each time. The same compound registered a fCmax in data set [6] of 32.27 µg/mL. Also, in data set [7], the fCmin came out at 0.91 µg/mL. The compound further yielded a fAUC in data set [9] of 157.43 µg·h/mL. The “fT>MIC” value in data set [10] came out at 91%.
